Earlier results on 1 compound are cited in patent JP2018030810A, “ゲフィチニブを有効成分とする医薬錠剤の製造方法” (Nippon Kayaku Co Ltd, priority 2016, dated 2018).

By solubility is commonly meant how much of the substance goes into solution per volume.

Converted amounts (≈) assume the structure as drawn. Where two headings read alike, the source gives them in different places.

On to `COc1cc2ncnc(Nc3ccc(F)c(Cl)c3)c2cc1OCCCN1CCOCC1` [ゲフィチニブ, N−(3−クロロ−4−フルオロフェニル)−7−メトキシ−6−[3−(モルフォリン−4−イル)プロポキシ]キナゾリン−4−アミン], for which the “solubility (in words)” value runs as follows: (pH1) “可溶性”; (pH4〜6) “溶解度は大きく低下”; (pH7) “実質的に不溶性”; (water) “ほとんど溶解しない”. In addition, the solubility (pH6) was approximately 1000 µg/mL (≈ 2240 µM). In addition, the “aqueous solubility (in words)” value is “水溶解度が極端に低下する” (small intestine environment, pH4〜8) and “良好な水溶解度” (stomach, acidic environment pH1〜4).
